{
  "source": "patent US20240423937A1",
  "about": "“METHODS OF TREATING PAIN AND USES THEREOF” (University of Tennessee Research Foundation, priority 2021, published 2024)",
  "key": {"CACNA2D1": {"target": "CACNA2D1 (Homo sapiens, UniProt P54289)", "sequence (P54289 25-1103)": "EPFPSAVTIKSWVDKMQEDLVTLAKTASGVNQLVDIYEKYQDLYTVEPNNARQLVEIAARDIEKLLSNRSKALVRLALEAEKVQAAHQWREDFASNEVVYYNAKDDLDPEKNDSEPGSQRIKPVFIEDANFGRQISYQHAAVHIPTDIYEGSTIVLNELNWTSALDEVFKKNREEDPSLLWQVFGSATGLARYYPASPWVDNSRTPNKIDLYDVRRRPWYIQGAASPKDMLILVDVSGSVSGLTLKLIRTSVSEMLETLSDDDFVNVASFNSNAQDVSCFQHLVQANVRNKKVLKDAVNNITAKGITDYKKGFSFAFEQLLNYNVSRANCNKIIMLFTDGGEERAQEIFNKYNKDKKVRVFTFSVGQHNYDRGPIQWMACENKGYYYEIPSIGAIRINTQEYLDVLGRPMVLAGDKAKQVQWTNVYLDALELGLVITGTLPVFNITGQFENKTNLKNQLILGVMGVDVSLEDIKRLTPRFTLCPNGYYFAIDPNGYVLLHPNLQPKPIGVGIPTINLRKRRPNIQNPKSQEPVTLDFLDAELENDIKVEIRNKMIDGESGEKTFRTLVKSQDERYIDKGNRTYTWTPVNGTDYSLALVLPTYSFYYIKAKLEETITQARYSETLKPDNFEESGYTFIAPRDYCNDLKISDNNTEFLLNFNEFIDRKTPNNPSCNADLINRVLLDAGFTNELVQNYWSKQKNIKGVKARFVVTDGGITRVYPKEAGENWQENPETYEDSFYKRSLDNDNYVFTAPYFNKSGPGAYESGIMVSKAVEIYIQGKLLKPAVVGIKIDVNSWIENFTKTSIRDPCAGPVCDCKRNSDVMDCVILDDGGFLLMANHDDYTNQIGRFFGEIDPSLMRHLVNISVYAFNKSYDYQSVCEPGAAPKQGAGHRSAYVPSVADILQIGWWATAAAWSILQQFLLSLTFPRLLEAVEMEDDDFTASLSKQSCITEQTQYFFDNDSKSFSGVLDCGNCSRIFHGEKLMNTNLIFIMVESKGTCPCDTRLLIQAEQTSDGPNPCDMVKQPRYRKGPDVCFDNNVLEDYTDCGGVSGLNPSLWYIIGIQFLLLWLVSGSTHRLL", "conditions": "cited from earlier work"}, "Dutch belted rabbits": {"tested_on": "Dutch belted rabbits", "assay": "Single topical dose IOP lowering in Dutch belted rabbits", "format": "in vivo, rabbit", "conditions": "single drop", "method": "Non-limiting exemplary data: We made a discovery that can make PRG effective in treating vision loss in glaucoma. In addition to its presence in the anterior segment (FIG. 2), CACNA2D1 is also localized to RGCs (FIGS. 3A&B), as well as the ON (FIG. 3C). […] At 24 hours after dosing, IOP is still reduced by >20%.\nMoreover, the combined effect of all three layers of our W/O/W ME is critical for enhancing the efficacy of PRG. […] Using this same model, we will evaluate our optimized formulations from Test 1.1.\nResearch Design and Methods: Dutch belted rabbits (Envigo Rabbitry; formerly Covance) will be used in this single-dose design study. Rabbits from this rabbitry can have higher baseline IOP values than those purchased from other rabbitries. Rabbits (equally balanced between males and females) will be acclimated to handling and IOP measurements for at least seven days before initiation of the study. Slit-lamp biomicroscopic and fundoscopic examinations will be performed before and after the study. Our top three formulations from Test 1.1 will be tested in this model using our methods^12. The IOP of both eyes will be measured using a rebound tonometer (Tono-Pen AVIA Vet, Reichert) immediately before the formulation application (baseline, 8 am) and at hourly time intervals after application until the IOP returns to baseline. Using a sterile micropipette tip, thirty microliters of the formulation containing PRG ME or blank control will be instilled topically into one eye of each rabbit, while the fellow eye will receive the formulation vehicle, and therefore serve as controls. Rabbits will be dosed daily at 8 am for 21 days, and IOP collected at 8 am (immediately pre-dosing) and at the time at which the maximum IOP reduction is measured (Tmax) using our methods^12. Curves similar to FIG. 16 will be generated. Biocompatibility of the antioxidant-containing formulations will be assessed using with slit lamp biomicroscopy as in FIG. 17. […]"}, "[1]": {"tested_on": "γ-aminobutyric acid (GABA) receptors", "conditions": "cited from earlier work"}, "[2]": {"conditions": "not told; cited from earlier work"}, "[3]": {"assay": "Topical pregabalin IOP lowering, aqueous / without microemulsion", "format": "in vivo", "excerpt": "As a bidirectional component of our study, we corroborated an imputed single-nucleotide polymorphism (SNP) in CACNA2D1 within a human POAG population. Immunohistochemistry studies in humans, rabbits, and mice indicate that CACNA2D1 is located in the ciliary body (CB) and outflow structures (FIG. 2), both of which can influence IOP. […] These findings are consistent with earlier findings that implicated Ca^2+ flux as a regulator of IOP through actions in both the CB and outflow structures^13,14. This is highly significant because few approved IOP-lowering drugs act on both the inflow and outflow facilities, and that we can be able to clarify the implicated but yet unproven role of Ca^2+ flux on inflow and outflow control. On the therapeutic side, because the amplitude and duration of PRG-mediated IOP reduction in our studies were limited (17% IOP reduction that returns to baseline at 6 hr)^15, we then engineered a new topical extended release microemulsion (ME) formulation to increase PRG efficacy and duration of action^12. […] These findings indicate the development of PRG as a new class of glaucoma therapeutics with a MOA distinct from current approved IOP-lowering medications.\nHowever, the amplitude and duration of response were limited and unpractical for clinical use. To increase the efficacy of PRG as an IOP-lowering drug, we engineered a new microemulsion topical formulation^12. Our formulation was designed as a water-in-oil-in water microemulsion with 40% and 60% of the PRG in the innermost and outermost aqueous phases, respectively. Compartmentalization of PRG in two aqueous phases supports both a rapid onset and long duration of IOP-lowering action. Drug release from the outermost aqueous phase is fast, allowing for rapid IOP reduction. To be released from the innermost aqueous phase, however, PRG must pass through two interfaces—the inner water/oil interface and the outer oil/water interface—after which it must diffuse through the viscous polymer solution that constitutes the outmost aqueous phase of our multilayered ME (FIG. 12). Collectively the movement across both interfaces slows movement of PRG from our formulation and supports the extended IOP-lowering effect. After diffusion from the outermost polymer, PRG is available for absorption through the cornea. To ensure that the formulation will remain on the corneal surface for enough time to allow for the sustained release of the drug, the outermost hydrogel layer is prepared from Carbopol 981, which has excellent bio-adhesive properties."}, "BXD29 mice": {"tested_on": "BXD29 mice", "assay": "Daily topical dosing of BXD29 mice for 6 weeks (IOP, optic nerve axons)", "format": "in vivo, mouse", "excerpt": "Objective: An obstacle in this study is the in vivo assessment of any direct neuroprotective effects of PRG that are independent of IOP lowering. […] These characteristics make BXD29 ideal for evaluating the direct neuroprotective properties of PRG on RGCs by eliminating indirect effects that would be mediated through IOP reduction.\nWe have evidence to show, without wishing to be bound by theory, that topical dosing with our PRG ME is neuroprotective to RGC axons in the ON. We dosed BXD29 mice daily with PRG ME beginning at 5 weeks of age (FIG. 9A) before ON degeneration was marked. […] In contrast, ON from mice dosed with unmedicated ME had loss of axon profiles and increased areas of debris (FIG. 9C). The studies will evaluate the role of PRG as a RGC neuroprotectant and define its cellular mechanism of action."}, "CACNA2D2": {"target": "CACNA2D2 (Homo sapiens, UniProt Q9NY47)", "sequence (Q9NY47 19-1150, species assumed)": "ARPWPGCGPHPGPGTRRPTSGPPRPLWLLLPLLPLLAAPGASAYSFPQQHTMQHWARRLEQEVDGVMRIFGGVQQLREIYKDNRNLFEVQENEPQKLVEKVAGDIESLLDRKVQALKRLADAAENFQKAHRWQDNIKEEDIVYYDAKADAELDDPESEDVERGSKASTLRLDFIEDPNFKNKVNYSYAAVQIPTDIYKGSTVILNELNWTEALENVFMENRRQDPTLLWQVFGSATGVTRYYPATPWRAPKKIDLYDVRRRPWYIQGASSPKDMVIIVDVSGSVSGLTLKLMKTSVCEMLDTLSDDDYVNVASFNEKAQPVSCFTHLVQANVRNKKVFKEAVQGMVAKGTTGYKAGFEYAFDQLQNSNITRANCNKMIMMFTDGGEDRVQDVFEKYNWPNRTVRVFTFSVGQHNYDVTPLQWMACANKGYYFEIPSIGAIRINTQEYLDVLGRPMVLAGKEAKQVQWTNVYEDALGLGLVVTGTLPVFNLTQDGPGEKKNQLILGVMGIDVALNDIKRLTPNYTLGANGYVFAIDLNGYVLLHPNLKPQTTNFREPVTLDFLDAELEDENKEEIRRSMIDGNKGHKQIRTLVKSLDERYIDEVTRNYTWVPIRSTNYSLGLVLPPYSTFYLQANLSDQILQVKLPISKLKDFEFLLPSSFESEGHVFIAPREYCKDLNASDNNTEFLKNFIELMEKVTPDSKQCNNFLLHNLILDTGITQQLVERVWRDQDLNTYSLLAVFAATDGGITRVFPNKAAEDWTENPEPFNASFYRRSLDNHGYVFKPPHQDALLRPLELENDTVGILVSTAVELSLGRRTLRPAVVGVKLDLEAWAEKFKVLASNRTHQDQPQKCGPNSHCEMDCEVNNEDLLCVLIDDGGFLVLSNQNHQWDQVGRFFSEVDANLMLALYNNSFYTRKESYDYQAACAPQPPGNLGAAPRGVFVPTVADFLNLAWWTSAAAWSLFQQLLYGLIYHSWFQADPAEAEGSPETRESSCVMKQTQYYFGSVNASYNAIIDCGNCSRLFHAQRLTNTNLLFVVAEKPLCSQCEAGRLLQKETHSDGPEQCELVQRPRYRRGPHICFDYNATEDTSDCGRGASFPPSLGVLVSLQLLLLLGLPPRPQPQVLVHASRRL", "conditions": "cited from earlier work"}, "[4]": {"conditions": "topical aqueous / initial PRG formulation"}, "[5]": {"conditions": "with versus without the microemulsion, species not stated"}},
  "note": "“Also recorded” adds a separate entry of the source. Where two headings read alike, the source gives them in different places.",
  "data": [
    {"smiles": "CC(C)C[C@H](CN)CC(=O)O", "note": "[pregabalin]", "values": [
      {"measurement": "affinity / specificity for CACNA2D1", "setting": "CACNA2D1", "result": "antagonist with specificity for CACNA2D1 and high specificity for CACNA2D1 and bind"},
      {"measurement": "affinity / specificity for CACNA2D1", "setting": "CACNA2D1; listed as PRG", "result": "high affinity and specificity; also recorded: binds with high affinity"},
      {"measurement": "affinity / specificity for CACNA2D1", "setting": "CACNA2D1; listed as Pregabalin", "result": "high affinity and specificity"},
      {"measurement": "AUC of IOP reduction", "setting": "Dutch belted rabbits", "result": 38, "unit": "mmHg·hr"},
      {"measurement": "maximal % reduction in IOP", "setting": "Dutch belted rabbits", "result": 30, "unit": "%"},
      {"measurement": "time at which IOP returns to baseline", "setting": "Dutch belted rabbits", "result": 10, "unit": "h"},
      {"measurement": "binding to GABA receptors", "setting": "[1]", "result": "does not bind"},
      {"measurement": "membrane permeability", "setting": "[2]", "result": "high membrane permeability"},
      {"measurement": "IOP reduction", "setting": "[3]; [4]", "result": 17, "unit": "%"},
      {"measurement": "return of IOP to baseline after dosing", "setting": "[3]; [4]", "result": 6, "unit": "h"},
      {"measurement": "dose dependence of IOP lowering", "setting": "[3]; topical dosing", "result": "dose dependent manner"},
      {"measurement": "IOP lowering", "setting": "[3]; [5]", "result": "about 20%"},
      {"measurement": "return of IOP to baseline after dosing", "setting": "[3]; [5]", "result": "8 to 10", "unit": "h"},
      {"measurement": "optic nerve axon preservation", "setting": "BXD29 mice; daily topical dosing for 6 weeks from 5 weeks of age", "result": "prevents degeneration of axons in the ON even in the absence of a reduction in IOP"},
      {"measurement": "IOP response of BXD29 mice", "setting": "BXD29 mice; topical, up to 6 weeks of daily dosing", "result": "unresponsive"},
      {"measurement": "binding to CACNA2D2", "setting": "CACNA2D2", "result": "bind"}
    ]}
  ]
}
